Measurements taken from US20220257578A1, “COMPOSITION AND METHOD FOR TREATING CANDIDA AURIS INFECTION” (Appili Therapeutics Inc., priority 2019, published 2022).
≈ marks a conversion by molar mass, not a printed value. Like-named read-outs stand apart in the source and are kept apart here.

Columns and labels:
[1] = test system: C. auris (DI 17-46); assay: Neutropenic mice with invasive candidiasis secondary to C. auris (survival arm and fungal burden arm); assay type: in vivo; settings: for percent survival: day 21, control 0%; for kidney fungal burden (mean): control 7.09; for kidney fungal burden: control 8.04
Method: FIG. 1 depicts survival curves in mice inoculated intravenously with C. auris and treated with vehicle control, fluconazole 20 mg/kg PO QD, or caspofungin 10 mg/kg IP QD (A) or T-2307 at doses of 0.75 mg/kg, 1.5 mg/kg, or 3 mg/kg SC QD (B). Treatment started one day post-inoculation and continued for 7 days. Mice were then followed off therapy until day 21 post-inoculation (14 days after therapy stopped). Black square—vehicle control; white circle—fluconazole 20 mg/kg; black circle—caspofungin 10 mg/kg; inverted gray triangle T-2307 0.75 mg/kg; gray rectangle—T-2307 1.5 mg/kg; gray triangle—T-2307 3 mg/kg. N=10 mice per group.
(§1) FIG. 2 depicts graphs showing kidney (A) and brain (B) fungal burden (CFU/g) in mice with invasive candidiasis secondary to C. auris in the fungal burden arm. Colony-forming units were measured on day 8 post-inoculation after 7 days of therapy. N=10 mice in the vehicle control and treatment groups; N=5 mice in the 24-hour control group.
as §1, with “FIG. 3” for “FIG. 2”, “the survival” for “the fungal burden”, “group. Black circles represent mice that succumbed to infection prior to day 21; gray circles represent mice that survived to the survival endpoint.” for “group.”
Male Institute of Cancer Research (ICR) mice were rendered neutropenic with a single dose of 5-fluorouracil (5 mg/mouse) administered 24 hours prior to inoculation, and a clinical isolate of C. auris (DI 17-46) was used to infect mice via the lateral tail vein as previously described (Wiederhold et al. 2019. Antimicrob Agents Chemother. 63:e02233-18, the entire contents of which is herein incorporated by reference). Treatment with vehicle control, T-2307 (0.75, 1.5, or 3 mg/kg subcutaneously (SC) once daily), fluconazole (20 mg/kg per orally (PO) once daily), or caspofungin (10 mg/kg intraperitoneally (IP) once daily) began 1-day post-inoculation and continued for 7 days. In the fungal burden arm, mice were humanely euthanized on day 8 post-inoculation, and kidneys and brains were collected, weighed, and homogenized for analysis of colony-forming units (CFU/g). In the survival arm, mice were followed off therapy for 14 days, until day 21 post-inoculation. Fungal burden was also assessed in the survival arm on day 21 or on the day the mice succumbed to infection. Differences in survival were assessed by Kaplan-Meier analysis with the log-rank test. ANOVA with Tukey's post-test for multiple comparisons were used to assess for differences in fungal burden and geometric mean (GM) MIC values.

[2] = test system: C. auris; assay: In vitro susceptibility testing according to CLSI M27-A3 (MIC); assay type: cell-based, Candida auris; settings: for MIC50 / MIC90 / MIC: Candidozyma auris; for MIC50: lowest concentration that inhibited 50% of the isolates tested; for MIC90: lowest concentration that inhibited 90% of the isolates tested
Method: In vitro susceptibility testing was performed according to the CLSI M27-A3 standard, the contents of which are herein incorporated by reference, against 10 isolates available from the U.S. Food and Drug Administration Center for Disease Control Antibiotic Resistance (FDA CDC AR) Isolate Bank and 13 clinical isolates that were received for testing by the Fungus Testing Laboratory at University of Texas Health Science Center at San Antonio (UTHSCSA).
In vitro activity of T-2307, fluconazole, and caspofungin against C. auris. […] MIC50 and MIC90 are lowest concentrations that inhibited 50% and 90%, respectively, of the isolates tested. GM MIC is geometric mean MIC.

[3] = 50% inhibition endpoint, read-out: GM MIC (geometric mean MIC)
[4] = infecting clinical isolate of C. auris (DI 17-46), read-out: MIC against the infecting isolate

CC[C@H](C)C[C@H](C)CCCCCCCCC(=O)N[C@H]1C[C@@H](O)[C@@H](NCCN)NC(=O)[C@@H]2[C@@H](O)CCN2C(=O)[C@H]([C@H](O)CCN)NC(=O)[C@H]([C@H](O)[C@@H](O)c2ccc(O)cc2)NC(=O)[C@@H]2C[C@@H](O)CN2C(=O)[C@H]([C@@H](C)O)NC1=O [Caspofungin, caspofungin]
percent survival ([1]; caspofungin 10 mg/kg IP once daily for 7 days): 100%
brain fungal burden ([1]; fungal burden arm, day 8 post-inoculation, caspofungin 10 mg/kg IP, control 5.88): 4.45 log10 CFU/g
kidney fungal burden (mean) ([1]; fungal burden arm, day 8 post-inoculation, caspofungin 10 mg/kg IP): 3.21 log10 CFU/g
brain fungal burden ([1]; survival arm, day 21 or day mice succumbed, caspofungin 10 mg/kg IP, control 6.31): 2.51 log10 CFU/g
kidney fungal burden ([1]; survival arm, day 21 or day mice succumbed, caspofungin 10 mg/kg IP): 3.11 log10 CFU/g
MIC50 ([2]; 50% inhibition endpoint): 0.25 µg/mL (≈ 0.229 µM)
MIC90 ([2]; 50% inhibition endpoint): 0.5 µg/mL (≈ 0.457 µM)
MIC [2, 3]: 0.24 µg/mL (≈ 0.22 µM)
MIC [2, 4]: 0.25 µg/mL (≈ 0.229 µM)

OC(Cn1cncn1)(Cn1cncn1)c1ccc(F)cc1F [Fluconazole, fluconazole]
improvement in survival vs control ([1]; fluconazole 20 mg/kg PO once daily): did not improve survival
MIC50 ([2]; 50% inhibition endpoint): 4 µg/mL (≈ 13.1 µM)
MIC90 ([2]; 50% inhibition endpoint): > 64 µg/mL
MIC [2, 3]: 14.6 µg/mL (≈ 47.7 µM)
MIC [2, 4]: > 64 µg/mL

N=C(N)c1ccc(OCCCC2CCN(CCCOc3ccc(C(=N)N)cc3)CC2)cc1 [T-2307, 4-{3-[4-(3-{4-[amino(imino)methyl]phenoxy}propyl)-1-piperidinyl]propoxy}benzamidine]
percent survival ([1]; T-2307 3 mg/kg SC once daily for 7 days): 70%
kidney fungal burden (mean) ([1]; fungal burden arm, day 8 post-inoculation, T-2307 3 mg/kg SC): 5.06 log10 CFU/g
nature of activity (kidney fungal burden vs 24-hour group before start of therapy) ([1]; fungal burden arm, T-2307 3 mg/kg SC): static in nature
improvement in survival vs control ([1]; lower doses of T-2307 (0.75, 1.5 mg/kg SC once daily)): did not improve survival
brain fungal burden ([1]; survival arm, day 21 or day mice succumbed, T-2307 3 mg/kg SC, control 6.31): 4.16 log10 CFU/g
kidney fungal burden ([1]; survival arm, day 21 or day mice succumbed, T-2307 3 mg/kg SC): 6.28 log10 CFU/g
MIC Range ([2]; 50% inhibition endpoint, 23 C. auris isolates, 24 hours at 35° C.): ≤0.008 to 0.015 µg/mL
MIC50 ([2]; 50% inhibition endpoint): 0.015 µg/mL (≈ 0.0343 µM)
MIC90 ([2]; 50% inhibition endpoint): 0.015 µg/mL (≈ 0.0343 µM)
MIC [2, 3]: 0.011 µg/mL (≈ 0.0251 µM)
MIC50 ([2]; 100% inhibition endpoint): > 4 µg/mL
MIC90 ([2]; 100% inhibition endpoint): > 4 µg/mL
MIC ([2]; 100% inhibition endpoint, read-out: GM MIC (geometric mean MIC)): 2.19 µg/mL (≈ 5 µM)
MIC [2, 4]: < 0.008 µg/mL
